Like-named read-outs stand apart in the source and are kept apart here.
How the values were obtained:
[1] = type: physicochemical; conditions: for Solubility (%): 4320 min; for Appearance of solution in ethylene glycol monomethyl ether: no precipitations even after 3 days
Method: (§1) In each case, 1 to 4 g of crystalline diazo compound were stirred in 25 g of ethylene glycol monomethyl ether, which is the most important solvent in coating technology, for 2 hours at room temperature and the mixture was allowed to stand for a further 70 hours without stirring, in order to complete the crystallization of possible amorphous constituents. The mixture was then filtered off with suction, and the filter residue was washed successively with 10 ml of methanol and 10 ml of ether, dried in vacuo, and its weight was determined. The solubilities in ethylene glycol monomethyl ether, listed in Table 3, were calculated from the difference relative to the quantity employed.

[2] = Solubility in n-butyl acetate; type: physicochemical; conditions: 1 g crystalline diazo compound stirred 2 hours in 25 g n-butyl acetate
Method: as §1
In a further widely used solvent, namel
1 g of the crystalline diazo compound was stirred for 2 hours in 25 g of
nbutyl acetate. The mixtures were then worked up as in Example 1.

[3] = 3 g of compound in 25 g solvent

| Compound | Solubility (%) [1] | other results |
| --- | --- | --- |
| CC(=O)c1ccc(OS(=O)(=O)c2cccc3c2C=CC(=[N+]=[N-])C3=O)cc1OS(=O)(=O)c1cccc2c1C=CC(=[N+]=[N-])C2=O [Compound 1] | 1.03% |  |
| CCCCC(=O)c1ccc(OS(=O)(=O)c2cccc3c2C=CC(=[N+]=[N-])C3=O)cc1OS(=O)(=O)c1cccc2c1C=CC(=[N+]=[N-])C2=O [Compound 2] | > 10.7% | Appearance of solution in ethylene glycol monomethyl ether [1, 3]: clear |
| CCCCC(CC)C(=O)c1ccc(OS(=O)(=O)c2cccc3c2C=CC(=[N+]=[N-])C3=O)cc1OS(=O)(=O)c1cccc2c1C=CC(=[N+]=[N-])C2=O (stereo not shown) [Compound 3] | > 13.8% | Appearance of solution in ethylene glycol monomethyl ether ([1]; 4 g of compound in 25 g solvent): clear |
| CCCCC(CC)C(=O)c1ccc(OS(=O)(=O)C2=CC(=[N+]=[N-])C(=O)c3ccccc32)cc1OS(=O)(=O)C1=CC(=[N+]=[N-])C(=O)c2ccccc21 (stereo not shown) [Compound 4] | 4.3% |  |
| CC(CC(=O)c1ccc(OS(=O)(=O)c2cccc3c2C=CC(=[N+]=[N-])C3=O)cc1OS(=O)(=O)c1cccc2c1C=CC(=[N+]=[N-])C2=O)CC(C)(C)C (stereo not shown) [Compound 5] | > 10.7% | Appearance of solution in ethylene glycol monomethyl ether [1, 3]: clear |
| CC(CC(=O)c1ccc(OS(=O)(=O)C2=CC(=[N+]=[N-])C(=O)c3ccccc32)cc1OS(=O)(=O)C1=CC(=[N+]=[N-])C(=O)c2ccccc21)CC(C)(C)C (stereo not shown) [Compound 6] | 10.5% |  |
| CCCCCCCCCCCCCCCC(=O)c1ccc(OS(=O)(=O)c2cccc3c2C=CC(=[N+]=[N-])C3=O)cc1OS(=O)(=O)c1cccc2c1C=CC(=[N+]=[N-])C2=O [Compound 7] |  | Solubility (%) in butyl acetate [2]: 1.03% |
| CCCCCCCCCCCCCCCC(=O)c1ccc(OS(=O)(=O)C2=CC(=[N+]=[N-])C(=O)c3ccccc32)cc1OS(=O)(=O)C1=CC(=[N+]=[N-])C(=O)c2ccccc21 [Compound 8] |  | Solubility (%) in butyl acetate [2]: 1.75% |
| COC(=O)c1ccc(OS(=O)(=O)c2cccc3c2C=CC(=[N+]=[N-])C3=O)cc1OS(=O)(=O)c1cccc2c1C=CC(=[N+]=[N-])C2=O [Compound 10] | 0.87% |  |
| CC(C)CCOC(=O)c1ccc(OS(=O)(=O)C2=CC(=[N+]=[N-])C(=O)c3ccccc32)cc1OS(=O)(=O)C1=CC(=[N+]=[N-])C(=O)c2ccccc21 [Compound 11] | 2.3% |  |
| CC(C)CCOC(=O)c1ccc(OS(=O)(=O)c2cccc3c2C=CC(=[N+]=[N-])C3=O)c(OS(=O)(=O)c2cccc3c2C=CC(=[N+]=[N-])C3=O)c1 [Compound 13] | 4.7% |  |
| CCOCCOC(=O)c1ccc(OS(=O)(=O)c2cccc3c2C=CC(=[N+]=[N-])C3=O)c(OS(=O)(=O)c2cccc3c2C=CC(=[N+]=[N-])C3=O)c1 [Compound 14] | 4.3% |  |
| CCOCCOC(=O)c1ccc(OS(=O)(=O)C2=CC(=[N+]=[N-])C(=O)c3ccccc32)c(OS(=O)(=O)C2=CC(=[N+]=[N-])C(=O)c3ccccc32)c1 [Compound 15] | 3.7% |  |
| CCOCCOC(=O)c1cc(OS(=O)(=O)c2cccc3c2C=CC(=[N+]=[N-])C3=O)cc(OS(=O)(=O)c2cccc3c2C=CC(=[N+]=[N-])C3=O)c1 [Compound 16] | 5.0% |  |
| CCCCCCCCCCCCOC(=O)c1ccc(OS(=O)(=O)c2cccc3c2C=CC(=[N+]=[N-])C3=O)cc1OS(=O)(=O)c1cccc2c1C=CC(=[N+]=[N-])C2=O [Compound 17] | 7.5% | Solubility (%) in butyl acetate [2]: 2.03% |
| CCCCCCCCCCCCOC(=O)c1cc(OS(=O)(=O)c2cccc3c2C=CC(=[N+]=[N-])C3=O)cc(OS(=O)(=O)c2cccc3c2C=CC(=[N+]=[N-])C3=O)c1 [Compound 18] | 4.6% |  |
| [N-]=[N+]=C1C=Cc2c(cccc2S(=O)(=O)Oc2ccc(C(=O)c3ccccc3)c(OS(=O)(=O)c3cccc4c3C=CC(=[N+]=[N-])C4=O)c2OS(=O)(=O)c2cccc3c2C=CC(=[N+]=[N-])C3=O)C1=O [V, tris-1,2-naphthoquinone-2-diazide-5-sulfonic acid ester of 2,3,4-trihydroxy-benzophenone, reference compound] | 1.0% | Solubility (%) in butyl acetate [2]: 0.50% |

From patent US4409314A, “Light-sensitive compounds, light-sensitive mixture, and light-sensitive copying material prepared therefrom” (Hoechst Aktiengesellschaft, priority 1980, dated 1983)
